From the supplement of paper PMC10307832

How the values were obtained:
Test in all cases: relative viability (nuclei count vs DMSO), 5 days (fraction); higher = more cells survive
MIM1 = compound: CC1=CSC(=NC2CCCCC2)N1/N=C/C3=C(C(=C(C=C3)O)O)O [MIM1]
Outline: (§1)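 Lung cancer cell lines received five library-drug doses (not always all listed) spaced by √10, pinned on vehicle-anchored 1536-well plates after an overnight stay at 37 °C. Five days later, with no medium change, nuclei were Hoechst-stained, imaged at 4× and counted with MetaXpress. Viability is treated-well nuclei relative to vehicle-well nuclei, as a median across plates. Passing plates had control CV below 25% and at least one doubling.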

Luminespib = compound: CCNC(=O)c1noc(-c2cc(C(C)C)c(O)cc2O)c1-c1ccc(CN2CCOCC2)cc1 [Luminespib]
Outline: as §1

Saracatinib = compound: CN1CCN(CCOc2cc(OC3CCOCC3)c3c(Nc4c(Cl)ccc5c4OCO5)ncnc3c2)CC1 [Saracatinib]
Outline: as §1

Nilotinib = compound: Cc1cn(-c2cc(NC(=O)c3ccc(C)c(Nc4nccc(-c5cccnc5)n4)c3)cc(C(F)(F)F)c2)cn1 [Nilotinib]
Outline: as §1

Lenalidomide = compound: Nc1cccc2c1CN(C1CCC(=O)NC1=O)C2=O [Lenalidomide]
Outline: as §1

Row | Cell Line | relative viability (MIM1; 0.2 µM) | relative viability (MIM1; 0.6325 µM) | relative viability (MIM1; 2 µM) | relative viability (MIM1; 6.325 µM) | relative viability (MIM1; 20 µM) | relative viability (Luminespib; 0.002 µM) | relative viability (Luminespib; 0.006325 µM) | relative viability (Luminespib; 0.01 µM, anchor plate) | relative viability (Luminespib; 0.02 µM) | relative viability (Luminespib; 0.06325 µM) | relative viability (Luminespib; 0.2 µM) | relative viability (Saracatinib; 0.02 µM) | relative viability (Saracatinib; 0.2 µM) | relative viability (Saracatinib; 0.6325 µM) | relative viability (Saracatinib; 2 µM) | relative viability (Nilotinib; 0.001 µM) | relative viability (Nilotinib; 0.003162 µM) | relative viability (Nilotinib; 0.01 µM) | relative viability (Nilotinib; 0.03162 µM) | relative viability (Nilotinib; 0.1 µM) | relative viability (Lenalidomide; 0.253 µM) | relative viability (Lenalidomide; 2.53 µM) | relative viability (Lenalidomide; 8 µM) | relative viability (Lenalidomide; 0.8 µM)
1 | NCI-H1395 | 0.961 | 0.791 | 0.873 | 0.675 | 0.345 | 1.07 | 0.861 | 0.764 | 0.622 | 0.362 | 0.323 | 0.994 | 0.828 | 0.91 | 0.799 | 0.957 | 0.7 | 0.874 | 0.803 | 0.542 | 0.997 | 1.02 | 0.846 | 
2 | NCI-H596 | 1.11 | 1.19 | 0.88 | 0.939 | 0.685 | 1.06 | 0.901 | 1.09 | 0.684 | 0.919 | 0.921 | 1.12 | 0.817 | 0.906 | 0.815 | 0.939 | 0.982 | 1.05 | 0.771 | 0.848 | 0.906 | 1.09 | 0.723 | 0.704
3 | BEN | 1.02 | 0.914 | 1.01 | 0.853 | 0.323 | 0.944 | 0.925 | 0.383 | 0.442 | 0.656 | 0.355 | 1.11 | 0.755 | 1.05 | 0.759 | 0.876 | 1.03 | 0.929 | 0.926 | 0.786 | 1.09 | 1.12 | 0.731 | 0.892
4 | SW 1573 | 1.1 | 0.966 | 0.976 | 0.763 | 0.488 | 1.04 | 0.976 | 0.217 | 0.595 | 0.108 | 0.107 | 0.931 | 0.785 | 0.877 | 0.729 | 0.906 | 1.2 | 1.12 | 0.737 | 0.66 | 0.914 | 1.08 | 0.925 | 1.01
5 | PC-14 | 0.959 | 1.01 | 0.836 | 0.807 | 0.325 | 1.02 | 0.933 | 0.164 | 0.572 | 0.0917 | 0.0993 | 1.01 | 0.675 | 0.453 | 0.234 | 0.944 | 1.14 | 1.26 | 0.879 | 0.643 | 1.01 | 1.12 | 1.1 | 1.02
6 | PC-3 [JPC-3] | 1.05 | 1.04 | 0.988 | 0.874 | 0.439 | 1.01 | 0.915 | 0.669 | 0.982 | 0.961 | 0.281 | 1.02 | 0.945 | 0.766 | 0.541 | 1.03 | 1.07 | 1.11 | 1 | 0.656 | 1.03 | 1.13 | 1.08 | 0.899
7 | NCI-H727 | 0.833 | 0.823 | 0.878 | 0.723 | 0.452 | 0.95 | 0.738 | 0.369 | 0.64 | 0.308 | 0.287 | 0.874 | 0.765 | 0.863 | 0.612 | 0.787 |  | 0.938 | 0.694 | 0.614 | 0.868 | 0.908 | 0.857 | 0.927
8 | NCI-H1437 | 0.956 | 0.927 | 1 | 0.714 | 0.273 | 0.977 | 0.943 | 1.12 | 1.02 | 0.743 | 0.26 | 1.02 | 1.02 | 1.04 | 0.971 | 0.955 | 0.988 | 1.12 | 0.868 | 0.958 | 1.02 | 1.05 | 1.01 | 0.939
9 | ABC-1 | 0.902 | 1.15 | 0.9 | 0.485 | 0.264 | 0.993 | 0.865 | 0.718 | 0.63 | 0.239 | 0.2 | 0.942 | 0.811 | 1 | 0.899 | 1 | 0.907 | 1.05 | 0.78 | 0.322 | 1.01 | 0.993 | 0.825 | 0.774
10 | NCI-H1355 | 1 | 0.824 | 1.07 | 0.816 | 0.595 | 0.953 | 0.956 | 0.746 | 0.52 | 0.67 | 0.166 | 1.02 | 0.972 | 1.03 | 0.975 | 0.96 | 1.21 | 1.13 | 1.01 | 0.428 | 1 | 1.02 | 0.721 | 0.746
11 | NCI-H1650 | 0.908 | 0.949 | 0.654 | 0.189 | 0.148 | 1.02 | 0.823 | 0.199 | 0.228 | 0.122 | 0.138 | 0.814 | 0.689 | 0.737 | 0.581 | 0.912 | 1.22 | 1.12 | 0.931 | 0.598 | 0.828 | 1.23 | 1.12 | 0.857
12 | NCI-H1623 | 0.922 | 0.965 | 1.03 | 0.945 | 0.46 | 1.02 | 0.959 | 0.529 | 0.712 | 0.716 | 0.302 | 0.993 | 0.852 | 1.11 | 0.67 | 1.1 | 0.885 | 1.08 | 0.889 | 0.927 | 1.08 | 1.05 | 0.869 | 0.932
13 | NCI-H522 | 1.13 | 0.893 | 0.865 | 0.859 | 0.607 | 0.945 | 0.935 | 1.16 | 0.73 | 0.617 | 0.391 | 0.917 | 0.705 | 0.907 | 0.732 |  | 0.974 | 0.996 | 0.89 | 0.722 | 0.896 | 1.07 | 0.886 | 0.816
14 | NCI-H23 | 0.99 | 0.52 | 0.798 | 0.523 | 0.209 | 0.953 | 0.932 | 0.22 | 0.663 | 0.13 | 0.141 | 1.12 | 0.794 | 0.988 | 0.739 | 0.963 | 0.899 | 1.15 | 0.668 | 0.74 | 0.922 | 1.18 | 0.764 | 0.91
